System: SEM cells
Assay: cell viability relative to DMSO control; higher = less cytotoxic
Details: 48 h
Procedure, shortened: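 Library compounds in DMSO were pin-dosed in an 11-point threefold series (47 μM to 0.79 nM) onto leukemia cells in 1536-well plates (5 μl). Plates held 500 cells/well of NOMO1 or SEM or 1000 cells/well of P12-Ichikawa, each adapted for at least four passages in each medium. Luminescence was read with CellTiter-Glo One after 48 h at 37°C. Viability means the per-plate percentage relative to DMSO wells, using cell-free wells as background.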

[1] = HPLM + 10% dialyzed FBS, 0.000781 µM
[2] = HPLM + 10% dialyzed FBS, 0.00234 µM
[3] = HPLM + 10% dialyzed FBS, 0.00702 µM
[4] = HPLM + 10% dialyzed FBS, 0.0211 µM
[5] = HPLM + 10% dialyzed FBS, 0.0632 µM
[6] = HPLM + 10% dialyzed FBS, 0.19 µM
[7] = HPLM + 10% dialyzed FBS, 0.569 µM
[8] = HPLM + 10% dialyzed FBS, 1.71 µM
[9] = HPLM + 10% dialyzed FBS, 5.12 µM
[10] = HPLM + 10% dialyzed FBS, 15.4 µM
[11] = HPLM + 10% dialyzed FBS, 46.1 µM
[12] = RPMI 5 mM glucose + 10% FBS, 0.000781 µM
[13] = RPMI 5 mM glucose + 10% FBS, 0.00234 µM
[14] = RPMI 5 mM glucose + 10% FBS, 0.00702 µM
[15] = RPMI 5 mM glucose + 10% FBS, 0.0211 µM
[16] = RPMI 5 mM glucose + 10% FBS, 0.0632 µM
[17] = RPMI 5 mM glucose + 10% FBS, 0.19 µM
[18] = RPMI 5 mM glucose + 10% FBS, 0.569 µM
[19] = RPMI 5 mM glucose + 10% FBS, 1.71 µM
[20] = RPMI 5 mM glucose + 10% FBS, 5.12 µM
[21] = RPMI 5 mM glucose + 10% FBS, 15.4 µM
[22] = RPMI 5 mM glucose + 10% FBS, 46.1 µM
[23] = RPMI 5 mM glucose + 10% dialyzed FBS, 0.000781 µM
[24] = RPMI 5 mM glucose + 10% dialyzed FBS, 0.00234 µM
[25] = RPMI 5 mM glucose + 10% dialyzed FBS, 0.00702 µM
[26] = RPMI 5 mM glucose + 10% dialyzed FBS, 0.0211 µM
[27] = RPMI 5 mM glucose + 10% dialyzed FBS, 0.0632 µM
[28] = RPMI 5 mM glucose + 10% dialyzed FBS, 0.19 µM
[29] = RPMI 5 mM glucose + 10% dialyzed FBS, 0.569 µM
[30] = RPMI 5 mM glucose + 10% dialyzed FBS, 1.71 µM
[31] = RPMI 5 mM glucose + 10% dialyzed FBS, 5.12 µM
[32] = RPMI 5 mM glucose + 10% dialyzed FBS, 15.4 µM
[33] = RPMI 5 mM glucose + 10% dialyzed FBS, 46.1 µM

Structure (SMILES)	cell viability [1]	cell viability [2]	cell viability [3]	cell viability [4]	cell viability [5]	cell viability [6]	cell viability [7]	cell viability [8]	cell viability [9]	cell viability [10]	cell viability [11]	cell viability [12]	cell viability [13]	cell viability [14]	cell viability [15]	cell viability [16]	cell viability [17]	cell viability [18]	cell viability [19]	cell viability [20]	cell viability [21]	cell viability [22]	cell viability [23]	cell viability [24]	cell viability [25]	cell viability [26]	cell viability [27]	cell viability [28]	cell viability [29]	cell viability [30]	cell viability [31]	cell viability [32]	cell viability [33]
COC1=CC=C(C=C1O)C/2=C/C(=O)C3=C(O2)C=C(O[C@@H]4O[C@H](CO[C@@H]5O[C@@H](C)[C@H](O)[C@@H](O)[C@H]5O)[C@@H](O)[C@H](O)[C@H]4O)C=C3O	95.1%	103%	106%	114%	124%	108%	122%	118%	102%	129%	113%	115%	108%	107%	111%	122%	113%	100%	106%	85.9%	105%	103%	102%	103%	111%	102%	123%	111%	112%	114%	93.8%	101%	99.2%
CCN(c1ccccc1)c1cc(NC)[n+](C)c(C)n1	110%	107%	108%	101%	107%	114%	99.5%	116%	104%	102%	97.9%	111%	97.2%	96.4%	105%	99.5%	101%	87.7%	100%	105%	95.3%	101%	101%	105%	97.4%	108%	99.9%	97.4%	105%	99.1%	107%	106%	100%
COC(=O)\C1=C\CCN(C)C1	113%	109%	106%	113%	102%	117%	103%	105%	109%	114%	106%	107%	103%	106%	109%	104%	111%	111%	110%	98.8%	99.8%	110%	101%	111%	109%	115%	127%	106%	114%	124%	110%	106%	105%
CC(C)(O)c1cc2nc(-c3cnc(N)nc3)nc(N3CCOCC3)c2s1	122%	125%	99.7%	113%	106%	106%	77.2%	59.9%	44.5%	41%	38%	82.9%	79.1%	74.3%	76%	78.2%	68.4%	57.1%	39.1%	29.1%	26.7%	23.3%	106%	113%	97.7%	107%	105%	94.7%	81.4%	52.3%	48.1%	47.8%	37.3%
OC1=CC2=C(C(=C1)O)C(=O)\C(=C(/O2)C3=CC(=C(O)C=C3)O)O	89.1%	84.2%	93.4%	99.4%	98.2%	94.4%	97.4%	110%	111%	94.8%	75.1%	79.7%	97.7%	106%	96.1%	99.6%	109%	106%	105%	108%	102%	71.5%	83.6%	85.2%	92.1%	88.3%	111%	104%	115%	101%	92.6%	104%	69.8%
C1CCN2C[C@H]3C[C@H](\C=C/4CCCN[C@@H]34)[C@H]2C1	91.7%	108%	105%	107%	115%	115%	113%	108%	101%	123%	112%	95.2%	105%	89.2%	118%	103%	110%	102%	96%	95.7%	118%	120%	99.6%	102%	109%	127%	103%	117%	103%	104%	95.8%	122%	122%
CCOC(=O)Nc1ccc(NCc2ccc(F)cc2)nc1N	111%	104%	119%	102%	105%	117%	94.9%	114%	99.9%	115%	101%	117%	121%	119%	117%	125%	118%	118%	116%	109%	116%	65.3%	115%	98.9%	120%	128%	131%	128%	138%	113%	104%	115%	80.2%
Nc1nc(Cl)nc2c1ncn2[C@@H]1O[C@H](CO)[C@@H](O)[C@@H]1F	14.5%	17%	16.4%	15.7%	18%	16.5%	15.1%	16.1%	10.2%	8.98%	4.93%	15.3%	20%	18.8%	16.8%	14.3%	10.8%	9.77%	9.03%	5.46%	3.69%	2.88%	12.6%	14.1%	15.2%	16.5%	14%	11.9%	10.8%	10.3%	8.13%	8.34%	4.01%

Reference: the supplement of paper PMC11451515
